# Laboratory results: article PMC7557402, “Evaluation of Nucleoside Analogs as Antimicrobials Targeting Unique Enzymes in Borrelia burgdorferi” (Pathogens, 2020)
# Legend:
# Bgp [1] = molecular target: T1, Bgp (Borreliella burgdorferi, UniProt Q9F952); experiment: MTAN spectrophotometric activity assay (specific activity, Km); type: biochemical, Borrelia burgdorferi
# Protocol: (§1) Recombinant MTANs were expressed and purified as previously described. Briefly, overnight 10 mL cultures of recombinant E. coli BL21(DE3) pLysS cells containing engineered pET30a expression plasmids for Bgp, MtnN or Pfs were grown at 37 °C with shaking (150 rpm) in LB broth supplemented with 50 µg/mL kanamycin and 0.5% glucose. The culture was diluted 1:50 in fresh medium and incubated at 37 °C with shaking (150 rpm) until the absorbance (600 nm) reached 0.4–0.6. Protein expression was induced with the addition of isopropyl β-D-1-thiogalactopyranoside (IPTG) to a final concentration of 1 mM and continued overnight incubation with shaking at 30 °C. Cells were harvested by centrifugation (10,000× g/15 min), and the pellet was washed once with ice-cold lysis buffer (50 mM sodium phosphate, pH = 8.0, 300 mM NaCl, 10 mM imidazole, 2mM β mercaptoethanol). Harvested cell pellets were resuspended in 10 mL fresh lysis buffer and lysed by sonication on ice using a Misonix Sonicator 300 (power setting 7, pulse 30 s, 1 min cooling with total sonication for 2.5 min). The cell lysates were centrifuged at 10,000× g for 15 min at 4 °C to remove debris, and the lysate was further filtered through a […] syringe filter to obtain a clear extract. Recombinant N-terminal hexahistidine tagged proteins were purified from the lysate using HisPur™ affinity columns (Thermo Scientific) according to the manufacturer’s specifications, and specifically eluted with 250 mM imidazole containing buffer (pH = 7). Eluted materials were analyzed by SDS-PAGE and Coomassie blue staining and found to be >95% homogeneous. Enzyme concentrations were determined using UV scans on a Cary100 spectrophotometer (Agilent) to determine the absorbance at 280 nm and applying extinction coefficients (0.1%) of 0.594 (Bgp), 0.637 (MtnN), and 0.404 (Pfs). Enzyme stocks (1 mg/mL) were prepared in 20% glycerol and stored at −80 °C.
# (§2) Enzyme specific activities were determined using previously reported optimal pH conditions (50 mM sodium phosphate, pH = 7, for Bgp, MtnN; 50 mM sodium phosphate-citrate, pH = 5, for Pfs) and a spectrophotometric activity assay that measures the decrease in UV absorbance at 275 nm that occurs when MTA is cleaved to 5-methylthioribose and adenine (ε275 = 1.6 mM^−1cm^−1). The extinction coefficients for cleavage of other nucleosides were experimentally validated and found to be the same for MSeA, FSBA, and IADO (ε275 = 1.6 mM^−1cm^−1). Due to the added UV absorbance imparted by the 5′ purine group found in PurTA, the enzyme reactions were followed spectrophotometrically at 260 nm using the experimentally determined extinction coefficient of ε260 = 5.6 mM^−1cm^−1. Enzyme specific activities for MTA were generally 1–2 U/mg (1 U = µmol MTA hydrolyzed/min). The enzyme specific activities for other nucleosides were determined and reported in U/mg and as the % max specific activity (relative to MTA at 100%).
# (§3) Kinetic constants have been previously reported for MTA [18]. As MSeA was also an efficient substrate for the B. burgdorferi nucleosidases, kinetic constants were determined using the activity assay described above, varying the nucleoside concentrations from 1 to 20 µM, and fitting the data on substrate-velocity plots to the Michaelis–Menten equation using GraphPad Prism (version 6):(1) Vo=Vmax[S]/Km+[S]
# MtnN [2] = molecular target: T2, MtnN (Borreliella burgdorferi, UniProt O50860); experiment: as above; type: biochemical, Borrelia burgdorferi
# Protocol: as §1, §2, §3
# Pfs [3] = molecular target: T3, Pfs (Borreliella burgdorferi, UniProt O50162); experiment: as above; type: biochemical, Borrelia burgdorferi
# Protocol: as §1, §2, §3
# Bgp [4] = molecular target: T1, Bgp; experiment: MTAN inhibition constants (competitive inhibition of MTA hydrolysis); type: biochemical, Borrelia burgdorferi; settings: MTA 100 µM, inhibitor 0 to 100 µM, read-out: Ki (inhibition constant)
# Protocol: (§4) The inhibited velocity (Vo’) and uninhibited velocity (Vo) values were determined, and the ratio of Vo’/Vo plotted as a function of inhibitor concentration. Ki values were calculated from these plots by fitting the data to the equation for competitive inhibition using GraphPad Prism:(2) Vo^′/Vo=Km+[S]/Km+[S]+(Km[I]/Ki)
# MtnN [5] = molecular target: T2, MtnN; experiment: as above; type: biochemical, Borrelia burgdorferi; settings: MTA 100 µM, inhibitor 0 to 100 µM, read-out: Ki (inhibition constant)
# Protocol: as §4, with “For the other compounds, inhibition constants (Ki’s) were determined as previously described, using an MTA concentration of 100 µM and varying the inhibitor concentration from 0 to 100 µM. The” for “The”
# (§5) The enzyme inhibition constant and delayed onset inhibition constant for dET-ImmA was previously reported.
# Pfs [6] = molecular target: T3, Pfs; experiment: as above; type: biochemical, Borrelia burgdorferi; settings: MTA 100 µM, inhibitor 0 to 100 µM, read-out: Ki (inhibition constant)
# Protocol: as §4, with “For the other compounds, inhibition constants (Ki’s) were determined as previously described, using an MTA concentration of 100 µM and varying the inhibitor concentration from 0 to 100 µM. The” for “The”
# as §5
# [7] = tested on: Borrelia MTANs (Bgp, MtnN, Pfs); experiment: MTAN activity/kinetics, across the nucleosidases; type: biochemical; settings: range over the B. burgdorferi nucleosidases
# Protocol: as §2, §3
# as §4, with “For the other compounds, inhibition constants (Ki’s) were determined as previously described, using an MTA concentration of 100 µM and varying the inhibitor concentration from 0 to 100 µM. The” for “The”
# B. burgdorferi N40 = experiment: Subculture without inhibitor after 7 days of treatment: bacteriostatic versus bactericidal; type: cell-based, Borrelia burgdorferi
# Protocol: After 7 days of treatment, a 5 µL aliquot from each treatment tube (and untreated control) was added to 1 mL of BSKII-RS medium to allow any remaining viable spirochetes in the sample to grow. After incubation for 7–21 days at 33 °C, the survival of the spirochetes was determined using dark-field microscopy to observe motility and by employing bioluminescence measurements to assess vitality of the recovered culture.
# To further differentiate between bacteriostatic versus bactericidal activities of MTAN inhibitors, we subcultured drug treated spirochetes in the absence of inhibitors to recover any live B. burgdorferi remaining after seven days of inhibitor treatment (summarized in Table 4). If non-motile spirochetes from treated cultures were able to grow back, the inhibitor was determined to have a bacteriostatic effect at the selected concentration. […] Spirochete survival was determined by both dark-field microscopy and bioluminescence measurements. Microscopic examination allowed assessment of motility of the spirochetes whereas bioluminescence assays assessed recovery and viability of B. burgdorferi cells. […] By comparison, a reduction in bioluminescence compared to the untreated control was observed after treatment with dEt-ImmA at a 0.4 µM or greater concentration. […] After seven days of treatment, live spirochetes were only recovered when concentrations of ≤0.4 µM were used for dEt-ImmA and IADO.
# [8] = pH 7, 1 U = 1 µmol MTA hydrolyzed per minute
# T2 sequence (O50860 entry or part of it): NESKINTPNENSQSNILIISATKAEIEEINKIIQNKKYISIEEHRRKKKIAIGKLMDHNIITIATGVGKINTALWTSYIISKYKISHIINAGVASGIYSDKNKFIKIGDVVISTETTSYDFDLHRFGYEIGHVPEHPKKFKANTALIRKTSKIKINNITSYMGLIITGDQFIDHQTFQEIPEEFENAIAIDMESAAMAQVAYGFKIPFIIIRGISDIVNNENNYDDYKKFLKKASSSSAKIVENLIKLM
# T1 sequence (Q9F952 entry or part of it): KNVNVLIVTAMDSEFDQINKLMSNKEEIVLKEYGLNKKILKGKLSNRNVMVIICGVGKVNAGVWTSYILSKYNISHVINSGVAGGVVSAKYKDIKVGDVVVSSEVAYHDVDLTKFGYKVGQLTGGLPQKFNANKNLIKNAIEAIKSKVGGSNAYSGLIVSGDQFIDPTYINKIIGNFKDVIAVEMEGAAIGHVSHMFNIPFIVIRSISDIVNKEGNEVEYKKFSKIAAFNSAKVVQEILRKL
# T3 sequence (O50162 entry or part of it): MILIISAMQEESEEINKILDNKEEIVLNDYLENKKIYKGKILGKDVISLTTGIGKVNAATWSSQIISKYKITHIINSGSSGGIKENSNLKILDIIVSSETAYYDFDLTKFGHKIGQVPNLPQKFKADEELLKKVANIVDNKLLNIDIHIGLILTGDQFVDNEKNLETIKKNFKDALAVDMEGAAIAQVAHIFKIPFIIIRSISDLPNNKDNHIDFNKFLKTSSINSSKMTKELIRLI
smiles,measurement,setting,value
"Nc1ncnc2c1ncn2[C@@H]1O[C@H](CI)[C@@H](O)[C@H]1O [IADO, 5′-deoxy-5′-iodoadenosine]",Specific Activity,Bgp [1]; [8],0.04 U/mg
same,% Max Specific Activity,Bgp [1]; relative to MTA as a substrate,4%
same,Specific Activity,MtnN [2]; [8],0.03 U/mg
same,% Max Specific Activity,MtnN [2]; relative to MTA as a substrate,3%
same,Specific Activity,"Pfs [3]; pH 5, 1 U = 1 µmol MTA hydrolyzed per minute",0.11 U/mg
same,% Max Specific Activity,Pfs [3]; relative to MTA as a substrate,6%
same,Ki,Bgp [4],630 nM
same,Ki,MtnN [5],2470 nM
same,Ki,Pfs [6],900 nM
same,activity relative to that found for MTA,[7],3–6%
same,recovery of live spirochetes,"B. burgdorferi N40; 2 µM and 10 µM, 21 days of subculture in media lacking MTAN inhibitors",no live spirochetes were recovered
same,Inhibitor Activity,"B. burgdorferi N40; Dose: 2 µM, 10 µM, 7 days of treatment, then subculture",Bactericidal
same,concentrations at which live spirochetes were recovered,B. burgdorferi N40; after seven days of treatment,≤ 0.4 µM
same,concentrations that exert bactericidal activity,"B. burgdorferi N40; after seven days of treatment, bacteriostatic at lower concentrations",≥ 1 µM
